Tested on: HFD-fed, streptozotocin (STZ) injected rats with type 2 diabetes (T2DM)
Assay: Study 3 (BVISIV): plasma biochemical parameters in HFD + STZ type 2 diabetes rats
Assay type: in vivo
Settings: for relative effectiveness in lowering serum triglyceride, LDL and ALT levels: 200 mg/kg/day oral, comparison among BVISIV formulations

Compound: O=C[C@H](O)[C@@H](O)[C@@H](O)[C@H](O)C(=O)O [BVISIV 4, Galacturonic Acid]
- lowering of glucose serum levels (200 mg/kg/day, end of 6 weeks, vs Group 2): most effective

Compound: O=C[C@H](O)[C@@H](O)[C@@H](O)[C@H](O)CO [BVISIV 5, Galactose]
- relative effectiveness in lowering serum triglyceride, LDL and ALT levels: effective

Compound: O=C[C@@H](O)[C@H](O)[C@H](O)CO [BVISIV 6, Arabinose]
- relative effectiveness in lowering serum triglyceride, LDL and ALT levels: did not perform as well as the other formulations

Source: patent US20190365790A1, “Compounds, Compositions and Methods for Prevention or Treatment of Liver and Lipid-related Conditions” (SIVANARAY INC., priority 2017, published 2019)
